In patent US8574563B2 (Bristol-Myers Squibb Company, priority 2006, dated 2013):

What follows are compounds tested on HCV 1b-377-neo replicon cells (assay: HCV replicon assay, HCV 1b-377-neo replicon cells (1b FRET)). Details: Hepatitis C virus, HCV 1b-377-neo replicon cells; HCV 1b genotype; read-out: EC50 range against HCV 1b (Table 2, Range).
Assay type: cell-based, Hepatitis C virus genotype 1b
Summary of the method: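 Compounds tested in HCV genotype 1b-377-neo replicon cells with a FRET read-out. Cells resistant to a reference NS5A inhibitor through a Y2065H NS5A mutation were run alongside wild-type cells.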

`COC(=O)N[C@@H](C(=O)N1CCC[C@H]1c1ncc(-c2ccc(-c3ccc(-c4cnc([C@@H]5CCCN5C(=O)[C@@H](c5ccccc5)N5CCCC5)[nH]4)cc3)cc2)[nH]1)c1ccccc1` [Example 100, methyl ((1R)-2-oxo-1-phenyl-2-((2S)-2-(5-(4′-(2-((2S)-1-((2R)-2-phenyl-2-(1-pyrrolidinyl)acetyl)-2-pyrrolidinyl)-1H-imidazol-5-yl)-4-biphenylyl)-1H-imidazol-2-yl)-1-pyrrolidinyl)ethyl)carbamate] and `COC(=O)N[C@@H](C(=O)N1CCC[C@H]1c1ncc(-c2ccc(-c3ccc(-c4cnc([C@@H]5CCCN5C(=O)[C@H](c5ccccc5)N(C)C)[nH]4)cc3)cc2)[nH]1)c1ccccc1` [Example 38, methyl ((1R)-2-((2S)-2-(5-(4′-(2-((2S)-1-((2S)-2-(dimethylamino)-2-phenylacetyl)-2-pyrrolidinyl)-1H-imidazol-5-yl)-4-biphenylyl)-1H-imidazol-2-yl)-1-pyrrolidinyl)-2-oxo-1-phenylethyl)carbamate] fall in the same range of EC50: 0.001 to 0.999 nM for the first, 0.001 to 0.999 nM for the second.

`CCN(CC)[C@@H](C(=O)N1CCC[C@H]1c1ncc(-c2ccc(-c3ccc(-c4cnc([C@@H]5CCCN5C(=O)[C@H]5CC[C@@H](N(CC)CC)CC5)[nH]4)cc3)cc2)[nH]1)c1ccccc1` [cj-73, cis-4-(((2S)-2-(5-(4′-(2-((2S)-1-((2R)-2-(diethylamino)-2-phenylacetyl)-2-pyrrolidinyl)-1H-imidazol-5-yl)-4-biphenylyl)-1H-imidazol-2-yl)-1-pyrrolidinyl)carbonyl)-N,N-diethylcyclohexanamine] and `CN(C)[C@@H](C(=O)N1CCC[C@H]1c1ncc(-c2ccc(-c3ccc(-c4cnc([C@@H]5CCCN5C(=O)N5CCOCC5)[nH]4)cc3)cc2)[nH]1)c1ccccc1` [Example 93, (1R)-N,N-dimethyl-2-((2S)-2-(5-(4′-(2-((2S)-1-(4-morpholinylcarbonyl)-2-pyrrolidinyl)-1H-imidazol-5-yl)-4-biphenylyl)-1H-imidazol-2-yl)-1-pyrrolidinyl)-2-oxo-1-phenylethanamine] fall in the same range of EC50: 0.001 to 0.999 nM for the first, 0.001 to 0.999 nM for the second.

`COC(=O)N[C@H](CCc1ccccc1)CC(=O)N1CCC[C@H]1c1ncc(-c2ccc(-c3ccc(-c4cnc([C@@H]5CCCN5C(=O)C[C@@H](CCc5ccccc5)NC(=O)OC)[nH]4)cc3)cc2)[nH]1` [cj-135, dimethyl (4,4′-biphenyldiylbis(1H-imidazole-5,2-diyl(2S)-2,1-pyrrolidinediyl((3R)-1-oxo-5-phenyl-1,3-pentanediyl)))biscarbamate] and `COC(=O)N[C@@H](C(=O)N1CCC[C@H]1c1ncc(-c2ccc(-c3ccc(-c4cnc([C@@H]5CCCN5C(=O)[C@H](NC(=O)OC)c5ccccc5)[nH]4)nn3)cc2)[nH]1)c1ccccc1` [Example 152j-10] fall in the same range of EC50: 1 to 99 nM for the first, 1 to 99 nM for the second.

Compared with `COC(=O)N[C@H](C(=O)N1CCC[C@H]1c1nc(-c2ccc(-c3ccc(-c4c[nH]c([C@@H]5CCCN5C(=O)[C@@H](C)NC5CCOCC5)n4)cc3)cc2)c[nH]1)C(C)C` [Example F53, methyl ((1S)-2-methyl-1-(((2S)-2-(4-(4′-(2-((2S)-1-(N-(tetrahydro-2H-pyran-4-yl)-D-alanyl)-2-pyrrolidinyl)-1H-imidazol-4-yl)-4-biphenylyl)-1H-imidazol-2-yl)-1-pyrrolidinyl)carbonyl)propyl)carbamate], `COC(=O)N[C@@H](C)C(=O)N1CCC[C@H]1c1ncc(-c2ccc(-c3ccc(-c4cnc([C@@H]5CCCN5C(=O)[C@@H](NC5=NCCN5)C(C)C)[nH]4)cc3)cc2)[nH]1` [cj-11f, methyl ((1S)-2-((2S)-2-(5-(4′-(2-((2S)-1-(N-(4,5-dihydro-1H-imidazol-2-yl)-L-valyl)-2-pyrrolidinyl)-1H-imidazol-5-yl)-4-biphenylyl)-1H-imidazol-2-yl)-1-pyrrolidinyl)-1-methyl-2-oxoethyl)carbamate] is higher in EC50: 0.001 to 0.999 nM for the first, 1 to 99 nM for the second.

`COC(=O)N[C@@H](C(=O)N1CCC[C@H]1c1ncc(-c2ccc(-c3ccc(-c4cnc([C@@H]5CCCN5C(=O)C5(c6ccc(Cl)cc6)CC5)[nH]4)cc3)cc2)[nH]1)c1ccccc1` [Example 84-78, methyl ((1R)-2-((2S)-2-(5-(4′-(2-((2S)-1-((1-(4-chlorophenyl)cyclopropyl)carbonyl)-2-pyrrolidinyl)-1H-imidazol-5-yl)-4-biphenylyl)-1H-imidazol-2-yl)-1-pyrrolidinyl)-2-oxo-1-phenylethyl)carbamate] and `COC(=O)N[C@@H](C(=O)N1CCC[C@H]1c1ncc(-c2ccc(-c3ccc(-c4cnc([C@@H]5CCCN5C(=O)C(C)(C)c5ccc(Cl)cc5)[nH]4)cc3)cc2)[nH]1)c1ccccc1` [Example 84-79, methyl ((1R)-2-((2S)-2-(5-(4′-(2-((2S)-1-(2-(4-chlorophenyl)-2-methylpropanoyl)-2-pyrrolidinyl)-1H-imidazol-5-yl)-4-biphenylyl)-1H-imidazol-2-yl)-1-pyrrolidinyl)-2-oxo-1-phenylethyl)carbamate] fall in the same range of EC50: 0.001 to 0.999 nM for the first, 0.001 to 0.999 nM for the second.

`COC(=O)N[C@H](C(=O)N1CCC[C@H]1c1ncc(-c2ccc(-c3ccc(-c4nc([C@@H]5CCCN5C(=O)[C@@H](NC(=O)OC)C(C)C)[nH]c4CO)cc3)cc2)[nH]1)C(C)C` [Example J14f, methyl ((1S)-1-(((2S)-2-(4-(hydroxymethyl)-5-(4′-(2-((2S)-1-((2S)-2-((methoxycarbonyl)amino)-3-methylbutanoyl)-2-pyrrolidinyl)-1H-imidazol-4-yl)-4-biphenylyl)-1H-imidazol-2-yl)-1-pyrrolidinyl)carbonyl)-2-methylpropyl)carbamate] and `COC(=O)N[C@@H](C)C(=O)N1CCC[C@H]1c1ncc(-c2ccc(-c3ccc(-c4[nH]c([C@@H]5CCCN5C(=O)[C@H](C)NC(=O)OC)nc4C(F)(F)F)cc3)cc2)[nH]1` [Example J38, methyl ((1S)-2-((2S)-2-(5-(4′-(2-((2S)-1-(N-(methoxycarbonyl)-L-alanyl)-2-pyrrolidinyl)-4-(trifluoromethyl)-1H-imidazol-5-yl)-4-biphenylyl)-1H-imidazol-2-yl)-1-pyrrolidinyl)-1-methyl-2-oxoethyl)carbamate] fall in the same range of EC50: 0.001 to 0.999 nM for the first, 0.001 to 0.999 nM for the second.

`O=C([C@H](O)c1ccccc1)N1CCC[C@H]1c1ncc(-c2ccc(-c3ccc(-c4cnc([C@@H]5CCCN5C(=O)[C@H](O)c5ccccc5)[nH]4)cn3)cc2)[nH]1` [Example 133, (1R)-2-((2S)-2-(5-(6-(4-(2-((2S)-1-((2R)-2-hydroxy-2-phenylacetyl)-2-pyrrolidinyl)-1H-imidazol-5-yl)phenyl)-3-pyridinyl)-1H-imidazol-2-yl)-1-pyrrolidinyl)-2-oxo-1-phenylethanol] and `COC(=O)N[C@@H](C(=O)N1CCC[C@H]1c1ncc(-c2ccc(-c3ccc(-c4cnc([C@@H]5CCCN5C(=O)[C@@H]5Cc6ccc(O)cc6CN5)[nH]4)cc3)cc2)[nH]1)c1ccccc1` [Example 84-20, methyl ((1R)-2-((2S)-2-(5-(4′-(2-((2S)-1-(((3S)-7-hydroxy-1,2,3,4-tetrahydro-3-isoquinolinyl)carbonyl)-2-pyrrolidinyl)-1H-imidazol-5-yl)-4-biphenylyl)-1H-imidazol-2-yl)-1-pyrrolidinyl)-2-oxo-1-phenylethyl)carbamate] fall in the same range of EC50: 1 to 99 nM for the first, 1 to 99 nM for the second.
